This note sets out measurements from patent US6174881A, “Hydroxymethylimidazodiazepines and their esters” (Hoffman-La Roche Inc., priority 1995, dated 2001).

In one test the test system is mice. Kind of test: rotating rod test in mice (sedative/muscle relaxant properties), i.v. The class given is in vivo, mouse. To be noted: for ED50: Mus musculus, iv. As for the experimental part:
The sedative/muscle relaxant properties of the compounds of formula II in accordance with the invention can be determined, for example, in the rotating rod test. Mice weighing 19-21 g are used for this test. They have free access to feed and drinking water up to 1 hour prior to the beginning of the test. They are brought into the test laboratory at least 30 minutes prior to the test. In the rotating rod test the animals are placed on a horizontally arranged, smooth metal rod having a diameter of 3 cm., which is rotated at 2 revolutions per minute. Initially, the animals are given the opportunity of familiarizing themselves with the test situation for 30 seconds. Subsequently, those animals which succeed in remaining on the rod for at least 1 minute are selected. The test preparations are then administered intraveneously to these animals in different dosages. At various points in time it is then determined whether the animals are able to remain for a minimum period on the rod (minimum period: 10 seconds, 1 minute from 5 minutes after administration). That dosage at which 50% of the animals are capable of remaining on the rod is determined (ED50).

Test [1] addresses central benzodiazepine receptors. The experiment in a line: inhibition of the binding of tritiated flumazenil to the specific benzodiazepine receptors in the cortex of rats. The note with it: 50% inhibition of specific binding of tritiated flumazenil, rat cortex; read-out: Affinity to benzodiazepine receptors IC50. As for the experimental part:
The affinity of compounds of general formula I to the central benzodiazepine receptors was established in vitro according to the methods described in Nature 294, 763-765 (1981) and J. Neurochemistry 37, 714-722 (1981). According to these methods the inhibition of the binding of tritiated flumazenil to the specific benzodiazepine receptors in the cortex of rats by the respective test substances is determined. The IC50 ("50% inhibiting concentration") denotes that concentration of the respective test substance which brings about a 50 percent inhibition of the specific binding of tritiated flumazenil to the specific benzodiazepine receptors in the cortex of rats.

Where [2] appears, read: 15 s, minimum time 10 sec, 15 sec after administration.
Where [3] appears, read: 0.5 min, minimum time 10 sec, 30 sec after administration.
Where [4] appears, read: 1 min, minimum time 10 sec, 60 sec after administration.
Where [5] appears, read: 2 min, minimum time 10 sec, 2 min after administration.
Where [6] appears, read: 5 min, minimum time 60 sec, 5 min after administration.
Where [7] appears, read: 0.25 h, minimum time 60 sec, 15 min after administration.
The mark [8] stands for this setting: 0.5 h, minimum time 60 sec, 30 min after administration.
Where [9] appears, read: 1 h, minimum time 60 sec, 60 min after administration.

By ED50 is commonly meant the midpoint of the dose-response relation. One may read the IC50 as the point on the concentration scale where inhibition reaches its midpoint. In the case of `OCc1cn2c(n1)CN=C(c1ccccc1F)c1cc(Cl)ccc1-2` [C, 8-Chloro-6-(2-fluorophenyl)-4H-imidazo[1,2-a]benzodiazepine-2-methanol], the median effective dose (ED50) was 0.1 mg/kg in the test on mice (setting [2]); 0.3 mg/kg in the test on mice (setting [3]); 0.3 mg/kg in the test with mice (setting [4]); at least 10 mg/kg in the test with mice (setting [5]); 0.8 mg/kg with mice (setting [6]); 0.4 mg/kg in the test on mice (setting [7]). For the same compound, the ED50 in the test with mice (setting [8]) is 1.1 mg/kg; in the test with mice (setting [9]) it was at least 10 mg/kg. Also, the IC50 in test [1] was found to be 1.7 nM.

Regarding “2-Chloro-4-(2-fluorophenyl)-8,9-dihydro-6H-imidazo[1,2-a]thieno[3,2-f][1,4]diazepine-8-methanol”, the “Rotating rod test, ED50” value is listed as 0.5 mg/kg with mice (minimum time 10 sec, 15 sec after administration, 0.25 min); 0,7 mg/kg in the test on mice (minimum time 10 sec, 30 sec after administration, 0.5 min); 0.6 mg/kg in the test on mice (minimum time 10 sec, 60 sec after administration, 1 min); 1.2 mg/kg in the test on mice (minimum time 10 sec, 2 min after administration); 2.3 mg/kg in the test on mice (minimum time 60 sec, 5 min after administration); 5.3 mg/kg with mice (minimum time 60 sec, 15 min after administration). Also, the “Rotating rod test, ED50” value is at least 10 mg/kg in the test on mice (minimum time 60 sec, 30 min after administration) and over 10 mg/kg with mice (minimum time 60 sec, 60 min after administration). Moreover, in test [1], the 50% inhibitory concentration (IC50) came out at 2.6 nM.

Turning to `OCc1cn2c(n1)CN=C(c1ccccc1)c1cc(C(F)(F)F)ccc1-2` [F, 8-Trifluoromethyl-6-phenyl-4H-imidazo[1,2-a][1,4]benzodiazepine-2 methanol], the ED50 in the test on mice (setting [2]) was 1 mg/kg; with mice (setting [3]), 1.1 mg/kg; in the test with mice (setting [4]), 1.1 mg/kg; with mice (setting [5]) it was over 3.2 mg/kg; in the test on mice (setting [6]), 1 mg/kg; in the test with mice (setting [7]) it was 0.9 mg/kg. Also, the results for the ED50 in the test with mice (setting [8]) and in the test with mice (setting [9]) were 1.1 mg/kg and 1.8 mg/kg, respectively. Besides, the IC50 in test [1] was 12 nM.

On to `C=CCNCc1c(CO)nc2n1-c1ccc(Cl)cc1C(c1ccccc1F)=NC2` [D, 1-Allylaminomethyl-8-chloro-6-(2-fluorophenyl)-4H-imidazo[1,2-a][1,4]benzodiazepine-2-methanol], for which the ED50 with mice (setting [2]) is 2.5 mg/kg; in the test on mice (setting [3]), 3 mg/kg; in the test with mice (setting [4]) it was 3.2 mg/kg; with mice (setting [5]), 3.2 mg/kg; with mice (setting [6]), 2.1 mg/kg; in the test with mice (setting [7]) it was 1.8 mg/kg. Moreover, the 50% effective dose (ED50) is at least 10 mg/kg in the test with mice (setting [8]) and over 10 mg/kg with mice (setting [9]). Besides, in test [1], the 50% inhibitory concentration (IC50) was 5.6 nM.

As to `OCc1cn2c(n1)CN=C(c1ccccn1)c1cc(Br)ccc1-2` [I, 8-Bromo-6-(2-pyridyl)-4H-imidazo[1,2-a][1,4]benzodiazepine-2 methanol], the ED50 with mice (setting [2]) is 1.5 mg/kg; in the test on mice (setting [3]), 2 mg/kg; in the test with mice (setting [4]), 3 mg/kg; with mice (setting [5]), over 10 mg/kg; in the test on mice (setting [6]) it was 1.4 mg/kg; in the test with mice (setting [7]) it was 1.8 mg/kg. Moreover, the ED50 is 3 mg/kg with mice (setting [8]) and at least 10 mg/kg in the test with mice (setting [9]). Besides, the IC50 in test [1] turned out to be 40 nM.

On to `OCc1cn2c(n1)CN=C(c1ccccc1Cl)c1cc(Cl)ccc1-2` [E, 8-Chloro-6-(2-chlorophenyl)-4H-imidazo[1,2-a][1,4]benzodiazepine-2 methanol], for which the ED50 is at most 0.32 mg/kg with mice (setting [2]); 0.4 mg/kg with mice (setting [3]); 0.5 mg/kg with mice (setting [4]); 3.2 mg/kg in the test with mice (setting [5]); 0.9 mg/kg in the test with mice (setting [6]); 0.5 mg/kg with mice (setting [7]). Further, the ED50 in the test on mice (setting [8]) and in the test with mice (setting [9]) was at least 3.2 mg/kg each time. Also, the IC50 in test [1] was 1.2 nM.

Take `CC(=O)OCc1cn2c(n1)CN=C(c1ccccc1F)c1cc(Cl)sc1-2` [B]: the ED50 with mice (setting [2]) is 0.6 mg/kg; in the test on mice (setting [3]), 0.7 mg/kg; in the test on mice (setting [4]) it was 1.2 mg/kg; with mice (setting [5]), 1 mg/kg; with mice (setting [6]), at least 10 mg/kg; with mice (setting [7]), at least 10 mg/kg. In addition, the ED50 was at least 10 mg/kg with mice (setting [8]) and over 10 mg/kg in the test with mice (setting [9]). In test [1], the IC50 amounted to 6 nM.

As for `OCc1cn2c(n1)CN=C(c1ccccc1F)c1cc(I)ccc1-2` [H, 6-(2-Fluorophenyl)-8-iodo-4H-imidazo[1,2-a][1,4]benzodiazepine-2 methanol], the ED50 in the test on mice (setting [2]) is 0.1 mg/kg; with mice (setting [3]), 0.06 mg/kg; in the test with mice (setting [4]) it was 0.09 mg/kg; in the test with mice (setting [5]), 0.1 mg/kg; in the test with mice (setting [6]) it was 0.1 mg/kg; with mice (setting [7]) it was 0.1 mg/kg. In addition, the ED50 was at least 1 mg/kg in the test on mice (setting [8]) and over 1 mg/kg in the test with mice (setting [9]). In addition, the IC50 in test [1] is 2.07 nM.

As for `O=[N+]([O-])c1ccc2c(c1)C(c1ccccc1F)=NCc1nc(CO)cn1-2` [G, 6-(2-Fluorophenyl)-8-nitro-4H-imidazo[1,2-a][1,4]benzodiazepine-2 methanol], the ED50 with mice (setting [2]) was 0.2 mg/kg; in the test on mice (setting [3]) it was 0.2 mg/kg; in the test with mice (setting [4]), 0.3 mg/kg; in the test with mice (setting [5]) it was 0.3 mg/kg; in the test with mice (setting [6]), 0.1 mg/kg; in the test with mice (setting [7]), 0.2 mg/kg. For the same compound, the ED50 in the test with mice (setting [8]) was 0.2 mg/kg; in the test with mice (setting [9]), at least 1 mg/kg. Further, in test [1], the IC50 turned out to be 2.3 nM.
